These results are taken from patent US4578498A, “Phenylethylene derivatives and their use as drugs” (BASF Aktiengesellschaft, priority 1982, dated 1986).

Each structure is given as a SMILES string.

In series [1] the test system is utriculi in the Rhino mouse. Nature of the series: Reduction of the number of utriculi in the Rhino mouse model. In kind it is in vivo, Rhino mice. The note with it: concentration 0.1%, Rhino mouse; read-out: Decrease in % (number of utriculi / cysts).
The subject of a further series is tracheal epithelium. Nature of the series: Elimination of keratinization in tracheal cultures (antitumor action). In kind it is cell-based, hamster. Particulars: Mesocricetus auratus, 240 h; hamster tracheal culture, 10 days, serum-free; extrapolated from dose-effect curves; read-out: ED50 (molar dose which suppresses keratinization in half the cultures) (converted). An excerpt:
The test model is used to determine the intrinsic property of the novel compounds of increasing the differentiation of epithelial cells. The great significance of this screening method in predicting the potential use of a new retinoid for the prevention of tumors in epithelial tissue is generally recognized. Moreover, it is known that every in vitro test system has disadvantages in respect of the prediction of in vivo activity. Apart from these basic restrictions, tracheal cell cultures are one of the most useful methods of determining the biological activity of novel retinoids.
The ability of the test substances to eliminate keratinization in a defined in vitro system was determined. Tracheae of hamsters at a very early stage of vitamin A deficiency were used for culture. […] Their average weight was from 47 to 52 g. The tracheal epithelium was in general slightly columnar or pavement-like and had only isolated areas of squamous metaplasia. Each trachea was opened along the membrane-like dorsal wall, from the larynx to the carina, and cultured in a serum-free medium (CMRL-1066 supplemented by 1.0 μg/ml of crystalline bovine insulin, 0.1 μg/ml of hydrocortisone hemisuccinate, 2mM of glutamine, 100 units/ml of penicillin and 100 μg/ml of streptomycin). The cultures were aerated with a mixture of 50% of oxygen, 45% of nitrogen and 5% of carbon dioxide, and the culture dishes were shaken gently to bring the tracheae into contact with the gas and the culture medium. All tracheae were initially kept for 3 days in the culture medium without the addition of retinoid. After this period, some tracheae were removed. […] The remaining tracheae were divided into groups, which were then treated with the following additives:
(a) The test substance dissolved in spectroscopically pure dimethylsulfoxide (the final concentration of dimethylsulfoxide in the culture medium was never greater than 0.1%).
(b) An equivalent amount of dimethylsulfoxide without a further additive.
The nutrient medium was changed three times per week. After culture for 10 days, the remaining tracheae were worked up by being fixed in 10% strength buffered formaldehyde solution and embedded in paraffin. […] Dose-effect curves of the novel compounds were recorded. Table 1 below gives the extrapolated molar doses which suppress keratinization in half the cultures (ED 50%).

Series [2] deals with white male New Zealand rabbits. Particulars: rabbit, in vivo. As to the method: 5. The toleration of the test substances after topical administration was determined in experiments with 6 white male New Zealand rabbits in each case. In the case of each test animal, an area of about 6 cm^2 on the back was shaved. The test substances were dissolved in ethanol/propylene glycol (70:30, v/v), and 0.2 ml of this solution was applied with an automatic micropipette on 9 successive days by carefully rubbing the solution into a particular point twice daily at 6-hour intervals.
Before each application in the morning, all test areas were assessed subjectively in respect of erythemas and scaling, a numerical scale from 0 to 3 being employed (0=no reaction, 1=mild, 2=moderate and 3=severe). The average erythema formation and scaling gives the relative irritant level of the test substances in comparison with vitamin A acid.

Series [3] has as its system leukemia cells of patients having promyelocytic leukemia. Nature of the series: Induction of cell differentiation in promyelocytic leukemia cells. In kind it is cell-based, human (patients).
In a further series the test system is comedos. Nature of the series: Comedolytic activity on tar-induced comedos of rabbit ears. In kind it is in vivo, albino rabbits. The note with it: Oryctolagus cuniculus, 336 h; concentration 0.1%, topical, rabbit ear, two weeks; read-out: Comedolytic activity in % (decrease in number of comedos vs control ear). As to the method:
The development of comedos was induced by one topical application of 0.5 ml per day, onto both ears of albino rabbits, of 5% of tar in Polyan® (ester of lanolin alcohol and linolenic acid, produced by Amerchol Corp., U.S.A.), the application being carried out on 5 successive days per week over a period of two weeks. Thereafter, the test substances in ethanol/propylene glycol (70:30, v/v, 0.5 ml) were applied topically onto the inner skin area of one ear of each rabbit once per day on 5 successive days per week over a period of two weeks. The second ear of each animal served as an untreated control.
After further treatment for 72 hours with the test substance, the rabbits were sacrificed. A skin sample of about 6 cm^2 was taken from each auricle just outside the oratory passage, and this sample was divided into sections of about 1 cm^2. These pieces of skin were immersed for 2 minutes in warm water at 60° C. The epidermis was carefully peeled off using the flat end of a spatula and a small forceps, and was placed, dermal side up, on the slide. After drying in air overnight, the test strips were assessed under a stereomicroscope. […] The comedos were recognizable as discrete, cylindrical to round keratose particles which were of similar appearance and whose size and number were proportional to the activity of the test substance. The comedolytic effect was determined as the decrease in the number of comedos, in %, compared with the control ear (cf. Table 2).

As for `C/C(=C\c1ccc(C(=O)O)cc1)c1cc2c(cc1C)C(C)(C)CCC2(C)C` [Example 2, E-4-[2-methyl-2-(1,1,4,4,6-pentamethyl-1,2,3,4-tetrahydronaphth-7-yl)-vinyl]-benzoic acid], the inhibition in vivo at 0.1 % in series [1] was determined as 68%. The IC50 with tracheal epithelium is 0.01 nM. In series [2], this molecule gave an Erythema of 2.8 and a Scaling of 2.7. In series [3], the “induction of cell differentiation to give mature granulocytes” value was “induce cell differentiation to give mature granulocytes”. Further, in the series on comedos, the inhibition in vivo at 0.1 % turned out to be 73%.
